Measured values published in US8242274B2, “Triazolopyridine kinase inhibitors useful for the treatment of degenerative and inflammatory diseases” (Galapagos NV, priority 2008, dated 2012).

Key:
[1] = Caco2 permeability, bi-directional; assay type: in vitro ADME; settings: human; for Papp A→B at 1 h, 10 μM: Caco-2, pH 7.4
Procedure: Bi-directional Caco-2 assays were performed as described below. Caco-2 cells were obtained from European Collection of Cell Cultures (ECACC, cat 86010202) and used after a 21 day cell culture in 24-well Transwell plates (Fisher TKT-545-020B).
2×10^5 cells/well were seeded in plating medium consisting of DMEM+GlutaMAXI+1% NEAA+10% FBS (FetalClone II)+1% Pen/Strep. The medium was changed every 2-3 days.
Test and reference compounds (propranolol and rhodamine 123 or vinblastine, all purchased from Sigma) were prepared in Hanks' Balanced Salt Solution containing 25 mM HEPES (pH 7.4) and added to either the apical (125 μL) or basolateral (600 μL) chambers of the Transwell plate assembly at a concentration of 10 μM with a final DMSO concentration of 0.25%.
50 μM Lucifer Yellow (Sigma) was added to the donor buffer in all wells to assess integrity of the cell layers by monitoring Lucifer Yellow permeation. As Lucifer Yellow (LY) cannot freely permeate lipophilic barriers, a high degree of LY transport indicates poor integrity of the cell layer.
After a 1 hour incubation at 37° C. while shaking at an orbital shaker at 150 rpm, 70 μL aliquots were taken from both apical (A) and basal (B) chambers and added to 100 μLl 50:50 acetonitrile:water solution containing analytical internal standard (0.5 μM carbamazepine) in a 96 well plate.
Lucifer yellow was measured with a Spectramax Gemini XS (Ex 426 nm and Em 538 nm) in a clean 96 well plate containing 150 μL of liquid from basolateral and apical side.
Concentrations of compound in the samples were measured by high performance liquid-chromatography/mass spectroscopy (LC-MS/MS).
The Efflux ratios, as an indication of active efflux from the apical cell surface, were calculated using the ratio of PappB>A/PappA>B.

[2] = test system: Collagen Induced Arthritis (CIA); assay: rat CIA model; assay type: in vivo
Procedure: Completed Freund's adjuvant (CFA) and incomplete Freund's adjuvant (IFA) were purchased from Difco. Bovine collagen type II (CII), lipopolysaccharide (LPS), and Enbrel were obtained from Chondrex (Isle d'Abeau, France); Sigma (P4252, L'Isle d'Abeau, France), Whyett (25 mg injectable syringe, France) Acros Organics (Palo Alto, Calif.), respectively. All other reagents used were of reagent grade and all solvents were of analytical grade.
Dark Agouti rats (male, 7-8 weeks old) were obtained from Harlan Laboratories (Maison-Alfort, France). Rats were kept on a 12 hours light/dark cycle (0700-1900). The temperature was maintained at 22° C., and food and water were provided ad libitum.
One day before the experiment, CII solution (2 mg/mL) was prepared with 0.05 M acetic acid and stored at 4° C. Just before the immunization, equal volumes of adjuvant (IFA) and CII were mixed by a homogenizer in a pre-cooled glass bottle in an ice water bath. Extra adjuvant and prolonged homogenization might be required if an emulsion is not formed. 0.2 mL of the emulsion was injected intradermally at the base of the tail of each rat on day 1, a second booster intradermal injection (CII solution at 2 mg/mL in CFA 0.1 mL saline) was performed on day 9. This immunization method was modified from published methods (Sims et al, 2004; Jou et al., 2005).
The therapeutic effects of the test compounds were tested in the rat CIA model. Rats were randomly divided into equal groups and each group contained 10 rats. All rats were immunized on day 1 and boosted on day 9. Therapeutic dosing lasted from day 16 to day 30. The negative control group was treated with vehicle (MC 0.5%) and the positive control group with Enbrel (10 mg/kg, 3× week, s.c.). A compound of interest was typically tested at 3 doses, e.g. 3, 10, 30 mg/kg, p.o.
Arthritis was scored according to the method of Khachigian 2006, Lin et al 2007 and Nishida et al. 2004). The swelling of each of the four paws was ranked with the arthritic score as follows: 0—no symptoms; 1—mild, but definite redness and swelling of one type of joint such as the ankle or wrist, or apparent redness and swelling limited to individual digits, regardless of the number of affected digits; 2—moderate redness and swelling of two or more types of joints; 3—severe redness and swelling of the entire paw including digits; 4—maximally inflamed limb with involvement of multiple joints (maximum cumulative clinical arthritis score 16 per animal) (Nishida et al., 2004).
The change in body weight (%) after onset of arthritis was calculated as follows: […]
X-ray photos were taken of the hind paws of each individual animal. […]

With `O=C(Nc1nc2cccc(-c3ccc(OCc4cccnc4)cc3)n2n1)C1CC1` [Compound 36, N-(5-(4-(pyridin-3-ylmethoxy)phenyl)-[1,2,4]triazolo[1,5-a]pyridin-2-yl)cyclopropanecarboxamide] the Papp A→B at 1 h, 10 μM [1] was 36.5 ×10⁻⁶ cm/s and the “activity in the rat CIA study” value ([2]; 30 mg/kg) was “active”.

In the case of `N#Cc1ccc(COc2ccc(-c3cccc4nc(NC(=O)C5CC5)nn34)cc2)cn1` [Compound 176, N-(5-(4-((6-cyanopyridin-3-yl)methoxy)phenyl)-[1,2,4]triazolo[1,5-a]pyridin-2-yl)cyclopropanecarboxamide], the Papp A→B at 1 h, 10 μM [1] was 10.6 ×10⁻⁶ cm/s, the “clinical score, rat CIA study” value ([2]; 3 mg/kg) was “Statistical significance” and the “paw swelling, rat CIA study” value ([2]; 3 mg/kg) was “Statistical significance”. For the same compound, the “efficacy in the rat CIA study, all readouts” value ([2]; rat, p.o., day 16 to day 30) was “efficacious in all readouts”.

For `O=C(Nc1nc2cccc(-c3ccc(OCc4ccccn4)cc3)n2n1)C1CC1` [Compound 37, N-(5-(4-(pyridin-2-ylmethoxy)phenyl)-[1,2,4]triazolo[1,5-a]pyridin-2-yl)cyclopropanecarboxamide], the efflux ratio at 1 h, 10 μM ([1]; Caco-2, pH 7.4, PappB>A/PappA>B) was 0.85, the Papp A→B at 1 h, 10 μM [1] was 23 ×10⁻⁶ cm/s and the “activity in the rat CIA study” value ([2]; 10 mg/kg) was “active”.

Work on `O=C(Nc1nc2cccc(-c3ccc(NCc4ccccc4)cc3)n2n1)C1CC1` [Compound 72, N-(5-(4-(benzylamino)phenyl)-[1,2,4]triazolo[1,5-a]pyridin-2-yl)cyclopropanecarboxamide] yielded a Papp A→B at 1 h, 10 μM [1] of 14.9 ×10⁻⁶ cm/s.

`O=C(Nc1nc2cccc(-c3ccc(OCc4ccc(C(F)(F)F)nc4)cc3)n2n1)C1CC1` [Compound 78, N-(5-(4-((6-(trifluoromethyl)pyridin-3-yl)methoxy)phenyl)-[1,2,4]triazolo[1,5-a]pyridin-2-yl)cyclopropanecarboxamide] showed a Papp A→B at 1 h, 10 μM [1] of 2 ×10⁻⁶ cm/s.
